Source: US20080090900A1, “ANTIBIOTIC BUSHRIN” (University of Karachi, priority 2006, published 2008)

Experiments:
[1] = system: Staphylococcus aureus (ATCC33591); assay: Time kill experiment; conditions: at two and four times the MIC
Staphylococcus aureus = assay: Spheroplasting activities; type: cell-based; conditions: Luria broth with 0.3M sucrose, 90 minutes, phase contrast microscope
Protocol: Aliquots (100 μl) of an exponential phase culture(A600,0.05) grown in Luria broth supplemented with 0.3M concentration of sucrose were dispensed into test tubes containing different concentration of Compound 1 and 1 μl/ml ampicillin as positive control. The tubes were then incubated at 30° C. with shaking at 140 rpm. After 90 minutes, the cells were examined by phase contrast microscope for any morphological changes or for the presence of spheroplast. To confirm the osmotic fragility of the spheroplast the lytic effect of 2-3 μl of water added under the cover slip was tested.

| SMILES | course of viable bacterial cell count [1] | formation of osmotically fragile spheroplasts (Staphylococcus aureus) |
| --- | --- | --- |
| CN[C@H](CC(C)C)C(=O)N[C@H]1C(=O)N[C@@H](CC(N)=O)C(=O)N[C@H]2C(=O)N[C@H]3C(=O)N[C@H](C(=O)N[C@H](C(=O)O)c4cc(O)cc(O)c4-c4cc3ccc4O)[C@H](O)c3ccc(c(Cl)c3)Oc3cc2cc(c3O[C@@H]2O[C@H](CO)[C@@H](O)[C@H](O)[C@H]2O[C@H]2C[C@](C)(N)[C@H](O)[C@H](C)O2)Oc2ccc(cc2Cl)[C@H]1O [vancomycin, reference compound] | decreased gradually | – |
| CC1(C)S[C@@H]2[C@H](NC(=O)[C@H](N)c3ccccc3)C(=O)N2[C@H]1C(=O)O [ampicillin, reference compound] | decreased gradually | observed |
